From ChEMBL document CHEMBL5550099, “Synthesis and biological activity of 11-Oxygenated and heterocyclic estrone analogs in pancreatic cancer monolayers and 3D spheroids” (Bioorg Med Chem, 2024)
pIC50: −log10 of the molar value. The source made the active and inactive calls. No cut-off for these calls is given here.

Assays:
ASPC1 = assay: Cytotoxicity against human ASPC1 cells incubated for 48 hrs by MTT assay; assay type: functional, cell-based; conditions: ASPC1, 48 h
PANC-1 [1] = assay: Cytotoxicity against human PANC-1 cells incubated for 48 hrs by MTT assay; assay type: functional, cell-based; conditions: PANC-1, 48 h
PANC-1 [2] = assay: Induction of apoptosis in human PANC-1 cells cultured as 3D spheroids assessed as fold increase in caspase-3/7 activity at 0.1 uM incubated for 48 hrs by Glo-max luminescence assay; assay type: functional
PANC-1 [3] = assay: Cytotoxicity against human PANC-1 cells co-cultured with human pancreatic stellate cells incubated for 48 hrs by MTT assay; assay type: functional, cell-based
PANC-1 [4] = assay: Induction of apoptosis in human PANC-1 cells co-cultured with human pancreatic stellate cells assessed as fold increase in caspase-3/7 activity at 0.1 uM incubated for 48 hrs by Glo-max luminescence assay; assay type: functional
BXPC-3 = assay: Cytotoxicity against human BXPC-3 cells incubated for 48 hrs by MTT assay; assay type: functional, cell-based; conditions: BXPC-3, 48 h
PANC-1 [5] = assay: Cytotoxicity against human PANC-1 cells cultured as 3D spheroids incubated for 48 hrs by Cell-titer glo luminescence assay; assay type: functional, cell-based; conditions: PANC-1, 48 h
PANC-1 [6] = assay: Cytotoxicity against human PANC-1 cells co-cultured with human pancreatic stellate cells incubated for 48 hrs by Cell-titer glo luminescence assay; assay type: functional, cell-based; conditions: PANC-1, 48 h
PANC-1 [7] = assay: Induction of apoptosis in human PANC-1 cells co-cultured with human pancreatic stellate cells assessed as decrease in caspase-3/7 activity by measuring reduction in cell number at 1 to 10 uM incubated for 48 hrs by Glo-max luminescence assay; assay type: functional, cell-based; conditions: dose 1-10 µM
PANC-1 [8] = assay: Induction of cell cycle arrest in human PANC-1 cells assessed as accumulation of cells at G2 phase at IC50 measured after 72 hrs by propidium iodide/RNase 141 staining based flow cytometry; assay type: functional
PANC-1 [9] = assay: Induction of apoptosis in human PANC-1 cells cultured as 3D spheroids assessed as decrease in caspase-3/7 activity by measuring reduction in cell number at 1 to 10 uM incubated for 48 hrs by Glo-max luminescence assay; assay type: functional, cell-based; conditions: dose 1-10 µM
PANC-1 [10] = assay: Induction of apoptosis in human PANC-1 cells cultured as 3D spheroids assessed as increase in caspase-3/7 activity upto 50 uM incubated for 48 hrs by Glo-max luminescence assay relative to control; assay type: functional; conditions: up to 50 µM
PANC-1 [11] = assay: Cytotoxicity against human PANC-1 cells cultured as 3D spheroids assessed as reduction in spheroid growth rate at 0.1 to 100 uM measured every two days by microscopic analysis; assay type: functional, cell-based; conditions: dose 0.1-100 µM
PANC-1 [12] = assay: Cytotoxicity against human PANC-1 cells co-cultured with human pancreatic stellate cells assessed as reduction in spheroid growth rate at 0.1 to 100 uM measured every two days by microscopic analysis; assay type: functional, cell-based; conditions: dose 0.1-100 µM
PANC-1 [13] = assay: Induction of apoptosis in human PANC-1 cells co-cultured with human pancreatic stellate cells assessed as increase in caspase-3/7 activity upto 50 uM incubated for 48 hrs by Glo-max luminescence assay relative to control; assay type: functional; conditions: up to 50 µM
PANC-1 [14] = assay: Cytotoxicity against human PANC-1 cells co-cultured with human pancreatic stellate cells assessed as inhibition of spheroid growth rate at 10 uM measured every two days by microscopic analysis; assay type: functional, cell-based
PANC-1 [15] = assay: Cytotoxicity against human PANC-1 cells cultured as 3D spheroids assessed as inhibition of spheroid growth rate at 10 uM measured every two days by microscopic analysis; assay type: functional, cell-based
PANC-1 [16] = assay: Induction of cell cycle arrest in human PANC-1 cells assessed as accumulation of cells at G1 phase at IC50 measured after 72 hrs by propidium iodide/RNase 141 staining based flow cytometry; assay type: functional

## COc1ccc2c(c1)CC[C@@H]1[C@@H]2CC[C@]2(C)C([C@@](C)(O)C(=O)/C=C/c3ccc(Cl)o3)CC[C@@H]12 (some centres undefined)
ASPC1
  pIC50: 4.40
PANC-1 [1]
  pIC50: < 4.30

## COc1ccc2c(c1)CC[C@@H]1[C@@H]2CC[C@]2(C)C([C@@](C)(O)C(=O)/C=C/c3ccc(C)s3)CC[C@@H]12 (some centres undefined)
ASPC1
  pIC50: < 4.30
PANC-1 [1]
  pIC50: < 4.30

## COc1ccc2c(c1)CC[C@@H]1[C@@H]2CC[C@]2(C)C([C@@](C)(O)C(=O)/C=C/c3ccc(Cl)s3)CC[C@@H]12 (some centres undefined)
ASPC1
  pIC50: < 4.30
PANC-1 [1]
  pIC50: 4.48

## COc1ccc2c(c1)CC[C@@H]1[C@@H]2[C@H](O)C[C@]2(C)C([C@@](C)(O)C(=O)/C=C/c3ccc(C(F)(F)F)cc3)CC[C@@H]12 (some centres undefined)
ASPC1
  pIC50: 4.94
PANC-1 [2]
  fold change (FC): 1.5
PANC-1 [3]
  Activity: Active
PANC-1 [4]
  fold change (FC): 1.5
BXPC-3
  pIC50: 5.22
PANC-1 [5]
  pIC50: 4.43
PANC-1 [6]
  pIC50: < 4.30
PANC-1 [1]
  pIC50: 5.19
PANC-1 [7]
  Activity: Active
PANC-1 [8]
  Activity: Active
PANC-1 [9]
  Activity: Active

## Nc1ccn([C@@H]2O[C@H](CO)[C@@H](O)C2(F)F)c(=O)n1 [GEMCITABINE]
ASPC1
  pIC50: < 4.30
PANC-1 [10]
  Activity: 20%
BXPC-3
  pIC50: < 4.30
PANC-1 [11]
  Activity: Active
PANC-1 [12]
  Activity: Active
PANC-1 [1]
  pIC50: < 4.30
PANC-1 [13]
  Activity: 20%

## Cc1ccc(/C=C/C(=O)[C@](C)(O)C2CC[C@H]3[C@@H]4CCc5cc(O)ccc5[C@H]4CC[C@]23C)s1 (some centres undefined)
ASPC1
  pIC50: 4.33
PANC-1 [1]
  pIC50: < 4.30

## COc1ccc2c(c1)CC[C@@H]1[C@@H]2[C@H](O)C[C@]2(C)C([C@@](C)(O)C(=O)/C=C/C(C)(C)O)CC[C@@H]12 (some centres undefined)
ASPC1
  pIC50: 4.76
PANC-1 [2]
  fold change (FC): 1.5
PANC-1 [3]
  Activity: Active
PANC-1 [4]
  fold change (FC): 1.5
BXPC-3
  pIC50: 4.99
PANC-1 [5]
  pIC50: 4.43
PANC-1 [6]
  pIC50: 4.40
PANC-1 [1]
  pIC50: 4.93
PANC-1 [7]
  Activity: Active
PANC-1 [8]
  Activity: Active
PANC-1 [9]
  Activity: Active

## C[C@](O)(C(=O)/C=C/c1cccs1)C1CC[C@H]2[C@@H]3CCc4cc(OS(N)(=O)=O)ccc4[C@H]3CC[C@]12C (some centres undefined)
ASPC1
  pIC50: 4.32
PANC-1 [1]
  pIC50: 4.28

## C[C@](O)(C(=O)/C=C/c1ccc(Cl)s1)C1CC[C@H]2[C@@H]3CCc4cc(O)ccc4[C@H]3CC[C@]12C (some centres undefined)
ASPC1
  pIC50: < 4.30
PANC-1 [1]
  pIC50: 4.40

## C[C@](O)(C(=O)/C=C/c1cccs1)C1CC[C@H]2[C@@H]3CCc4cc(O)ccc4[C@H]3CC[C@]12C (some centres undefined)
ASPC1
  pIC50: < 4.30
PANC-1 [1]
  pIC50: 4.38

## C[C@](O)(C(=O)/C=C/c1ccc(Cl)s1)C1CC[C@H]2[C@@H]3CCc4cc(OS(N)(=O)=O)ccc4[C@H]3CC[C@]12C (some centres undefined)
ASPC1
  pIC50: < 4.30
PANC-1 [1]
  pIC50: < 4.30

## COc1ccc2c(c1)CC[C@@H]1[C@@H]2C(=O)C[C@]2(C)C([C@@](C)(O)C(=O)/C=C/c3ccc(C(F)(F)F)cc3)CC[C@@H]12 (some centres undefined)
PANC-1 [14]
  Activity: Active
ASPC1
  pIC50: 5.38
PANC-1 [2]
  fold change (FC): 1.5
PANC-1 [3]
  Activity: Active
PANC-1 [15]
  Activity: Active
PANC-1 [16]
  Activity: Active
PANC-1 [4]
  fold change (FC): 1.5
BXPC-3
  pIC50: 5.24
PANC-1 [5]
  pIC50: 4.68
PANC-1 [6]
  pIC50: 4.61
PANC-1 [1]
  pIC50: 5.28
PANC-1 [7]
  Activity: Active
PANC-1 [9]
  Activity: Active

## COc1ccc2c(c1)CC[C@@H]1[C@@H]2CC[C@]2(C)C([C@@](C)(O)C(=O)/C=C/c3cccs3)CC[C@@H]12 (some centres undefined)
ASPC1
  pIC50: < 4.30
PANC-1 [1]
  pIC50: 4.42

## C[C@](O)(C(=O)/C=C/c1ccc(Cl)o1)C1CC[C@H]2[C@@H]3CCc4cc(O)ccc4[C@H]3CC[C@]12C (some centres undefined)
ASPC1
  pIC50: < 4.30
PANC-1 [1]
  pIC50: 4.99

## Cc1ccc(/C=C/C(=O)[C@](C)(O)C2CC[C@H]3[C@@H]4CCc5cc(OS(N)(=O)=O)ccc5[C@H]4CC[C@]23C)s1 (some centres undefined)
ASPC1
  pIC50: 4.42
PANC-1 [1]
  pIC50: < 4.30
